Data published in patent US4778797A, “Organo-silicon compounds, process for the manufacture of same, and anti-tumor agent comprising the compound” (Sanwa Kagaku Kenkyusho Co., Ltd., priority 1984, dated 1988).
≈ marks a conversion by molar mass, not a printed value. Where two headings read alike, the source gives them in different places.

Legend:
B-16 melanoma = test: Anti-tumor action to B-16 melanoma; assay type: in vivo, BDF1 female mice; settings: oral, tumor weight at 21st day; for inhibition in vivo at 100 mg/kg/day: 100 mg/kg/day × 3; for inhibition in vivo at 200 mg/kg/day: 200 mg/kg/day × 3; for inhibition in vivo at 400 mg/kg/day: 400 mg/kg/day × 3
Excerpt: B-16 melanoma (1×10^5 cells) was transplanted under skin of BDF1 female mice (age of about 5 weeks), and each of testing compounds was orally dosed at 1st, 5th and 9th day after the transplantation. At 21st day after the transplantation, the mice were killed to measure a weight of the cancerous tumor and to finally determine an inhibition ratio.

Colon-38 carcinoma = test: Anti-tumor action to Colon-38 carcinoma; assay type: in vivo, BDF1 mice; settings: oral, tumor weight at 28th day
Experimental: 0.02 ml of 10(W/V)% cell suspension prepared from a solid cancer cell (Colon-38 carcinoma) were transplanted under skin of BDF1 mice (20-21 g, age of about 5 weeks), and each of testing compounds was orally dosed to the mice at 1st, 5th and 9th day after the transplantation. A major and minor axes of the cancerous tumor were measured at 11th, 14th, 21st, 25th and 28th day after the transplantation to calcurate volume of the tumor in accordance with the following.
At 28th day from the transplantation, the mice were killed and each of the cancerous tumors was extracted to measure its weight and to determine an inhibitation ratio in comparison with a non-treated control group.

L-1210 leukemia = test: Anti-tumor action to L-1210 leukemia; assay type: in vivo, BDF1 female mice; settings: Mus musculus, L1210, oral; for ILS at 250 mg/kg/day: 250 mg/kg/day × 3 (1st, 5th, 9th day); for ILS at 500 mg/kg/day: 500 mg/kg/day × 3 (1st, 5th, 9th day)
Experimental: L-1210 leukemia cell (1×10^5 cells) was transplanted in a abdominal cavity of BDF1 female mice (20-21 g, age of about 5 weeks), and each of testing compounds was orally dosed in 250 mg/kg or 500 mg/kg at 1st, 5th and 9th day after the transplantation to check days of life of the mice. [formula]

KB cells = test: Suppression of KB cell proliferation in vitro; assay type: cell-based; settings: Homo sapiens, 72 h, 3 days exposure, Trypan Blue dye-exclusion, read-out: KB IC50 (50% inhibition density to tumor cell proliferation)
Experimental: In a cultivation device (5% CO2, 37° C.), KB cells (1×10^4 cells) were cultivated for 24 hours in a culture tube with 1 ml of Eagle culture medium added 10% ox serum, the used culture medium was thrown away to change with a fresh culture medium (0.9 ml), and then 0.1 ml of a similar culture fluid containing each testing compound prepared by the process as described in the Examples was added to cultivate the same for further 3 days. Thereafter, living cells were dyed with Tripan Blue and measured same through a dye-exclusion method.
A control was treated in a manner similar to the above, except that a culture fluid containing no compound of the invention was added.
50% inhibition density (IC50) to the tumor cell proliferation was decided through the tests between the testing group and the control group to obtain results as shown in following Table 1.

Lewis lung carcinoma = test: Anti-tumor action to Lewis lung carcinoma (primary tumor weight and metastasis); assay type: in vivo, BDF1 mice; settings: Mus musculus, po, 504 h
Excerpt: Lewis lung carcinoma (1×10^5 cells) was transplanted under skin of right ear of BDF1 mice (age of about 5 weeks), and each of testing compounds was orally dosed 10 times from 1st to 10th day after the transplantation. At 21st day after the transplantation, the mice were killed to measure a weight of the primarly tumor and to extract a lung. The lung was fixed in a conventional manner to count a number of metastasis on cancerous cells with use of a stereomicroscope having a low magnification. An anti-tumor action of each compound was expressed with an inhibition in weight of the primarly tumor and an inhibition of the metastasis.

[1] = Mus musculus, B16, 504 h, 125 mg/kg/day × 3, read-out: B-16 melanoma Inhibition ratio
[2] = Mus musculus, B16, 504 h, read-out: B-16 melanoma Inhibition ratio

Structure (SMILES) | B-16 melanoma Inhibition ratio (B-16 melanoma; 125 mg/kg/day × 3) [%] | B-16 melanoma Inhibition ratio (B-16 melanoma; 250 mg/kg/day × 3) [%] | ILS at 250 mg/kg/day (L-1210 leukemia; read-out: L-1210 ILS) [%] | ILS at 250 mg/kg/day (L-1210 leukemia; read-out: L-1210 Judgement) [%] | ILS at 500 mg/kg/day (L-1210 leukemia; read-out: L-1210 ILS) [%] | ILS at 500 mg/kg/day (L-1210 leukemia; read-out: L-1210 Judgement) [%] | IC50 (KB cells) [mg/L] | also measured
CC(C)(C)[Si](C)(C)CCCSCCCNC(=O)n1cc(F)c(=O)[nH]c1=O [Example 14, N-[3-[[3-(t-Butyldimethylsilyl)propyl]thio]propyl]-5-fluoro-3,4-dihydro-2,4-dioxo-1(2H)-pyrimidinecarboxamide] | 55.2 | 46.3 | 19 | < 25 | 68 | 50 to 100 |  | colon-38 Inhibition ratio (Colon-38 carcinoma; 323 mg/kg/day × 3): 90.1%
CC(C)(C)[Si](C)(C)CCCSCCNC(=O)n1cc(F)c(=O)[nH]c1=O [Example 13, N-[2-[[3-(t-Butyldimethylsilyl)propyl]thio]ethyl]-5-fluoro-3,4-dihydro-2,4-dioxo-1(2H)-pyrimidinecarboxamide] |  | 43.1 | 10 | < 25 | 67 | 50 to 100 | 13 (≈ 33.4 µM) | inhibition in vivo at 125 mg/kg/day (B-16 melanoma; [1]): 38%; colon-38 Inhibition ratio (Colon-38 carcinoma; 311 mg/kg/day × 3): 81.0%
C[Si](C)(CCCSCCCNC(=O)n1cc(F)c(=O)[nH]c1=O)c1ccccc1 [Example 16, N-[3-[[3-(Dimethylphenylsilyl)propyl]thio]propyl]-5-fluoro-3,4-dihydro-2,4-dioxo-1(2H)-pyrimidinecarboxamide] | 82.2 | 70.5 | 23 | < 25 | 86 | 50 to 100 |  | colon-38 Inhibition ratio (Colon-38 carcinoma; 339 mg/kg/day × 3): 97.9%
CC(C)[Si](C)(C)CCSCCCNC(=O)n1cc(F)c(=O)[nH]c1=O [Example 9, 5-Fluoro-3,4-dihydro-N-[3-[[2-(isopropyldimethylsilyl)ethyl]thio]propyl]-2,4-dioxo-1(2H)-pyrimidinecarboxamide] | 17.6 | 19.4 | 45 | 25 to 50 | 80 | 50 to 100 | 15 (≈ 39.9 µM) | colon-38 Inhibition ratio (Colon-38 carcinoma; 338 mg/kg/day × 3): 98.4%
C[Si](C)(CCSCCCNC(=O)n1cc(F)c(=O)[nH]c1=O)c1ccccc1 [Example 18, N-[3-[[2-(Dimethylphenylsilyl)ethyl]thio]propyl]-5-fluoro-3,4-dihydro-2,4-dioxo-1(2H)-pyrimidinecarboxamide] |  |  |  |  |  |  |  | inhibition in vivo at 100 mg/kg/day (B-16 melanoma; [2]): 55.2%; inhibition in vivo at 200 mg/kg/day (B-16 melanoma; [2]): 46.7%; inhibition in vivo at 400 mg/kg/day (B-16 melanoma; [2]): 29.6%; inhibition in vivo at 328 mg/kg/day (Colon-38 carcinoma; Mus musculus, 672 h, 328 mg/kg/day × 3, read-out: colon-38 Inhibition ratio): 71.3%
CCCCCCCC[Si](C)(C)CCSCCNC(=O)n1cc(F)c(=O)[nH]c1=O [Example 4, N-[2-[[2-(Dimethyloctylsilyl)ethyl]thio]ethyl]-5-fluoro-3,4-dihydro-2,4-dioxo-1(2H)-pyrimidinecarboxamide] |  |  | 12 | < 25 | 38 | 25 to 50 | 20 (≈ 46.3 µM) | inhibition in vivo at 32 mg/kg/day (Lewis lung carcinoma; 32 mg/kg/day × 10, 21st day, read-out: Inhibition Ratio weight LLC): 4.6%; inhibition in vivo at 32 mg/kg/day (Lewis lung carcinoma; 32 mg/kg/day × 10, lung, 21st day, read-out: Inhibition Ratio metastasis): 76.2%; inhibition in vivo at 64 mg/kg/day (Lewis lung carcinoma; 64 mg/kg/day × 10, 21st day, read-out: Inhibition Ratio weight LLC): 18%; inhibition in vivo at 64 mg/kg/day (Lewis lung carcinoma; 64 mg/kg/day × 10, lung, 21st day, read-out: Inhibition Ratio metastasis): 97.5%; colon-38 Inhibition ratio (Colon-38 carcinoma; 345 mg/kg/day × 3): 80.0%
CC(C)[Si](C)(C)CCCSCCNC(=O)n1cc(F)c(=O)[nH]c1=O [Example 12, 5-Fluoro-3,4-dihydro-N-[2-[[3-(isopropyldimethylsilyl)propyl]thio]ethyl]-2,4-dioxo-1(2H)-pyrimidinecarboxamide] |  |  | 24 | < 25 | 70 | 50 to 100 | 15 (≈ 39.9 µM) | inhibition in vivo at 125 mg/kg/day (B-16 melanoma; [1]): 34.2%; inhibition in vivo at 250 mg/kg/day (B-16 melanoma; Mus musculus, B16, 504 h, 250 mg/kg/day × 3, read-out: B-16 melanoma Inhibition ratio): 37.9%; inhibition in vivo at 338 mg/kg/day (Colon-38 carcinoma; Mus musculus, 672 h, 338 mg/kg/day × 3, read-out: colon-38 Inhibition ratio): 97.3%
C[Si](CCSCCNC(=O)n1cc(F)c(=O)[nH]c1=O)(c1ccccc1)c1ccccc1 [Example 7, 5-Fluoro-3,4-dihydro-N-[2-[[2-(methyldiphenylsilyl)ethyl]thio]ethyl]-2,4-dioxo-1(2H)-pyrimidinecarboxamide] |  |  | 11 | < 25 | 11 | < 25 | 4 (≈ 8.74 µM) | inhibition in vivo at 34 mg/kg/day (Lewis lung carcinoma; 34 mg/kg/day × 10, 21st day, read-out: Inhibition Ratio weight LLC): 31%; inhibition in vivo at 34 mg/kg/day (Lewis lung carcinoma; 34 mg/kg/day × 10, lung, 21st day, read-out: Inhibition Ratio metastasis): 67.1%; inhibition in vivo at 68 mg/kg/day (Lewis lung carcinoma; 68 mg/kg/day × 10, 21st day, read-out: Inhibition Ratio weight LLC): 25%; inhibition in vivo at 68 mg/kg/day (Lewis lung carcinoma; 68 mg/kg/day × 10, lung, 21st day, read-out: Inhibition Ratio metastasis): 87.7%; inhibition in vivo at 366 mg/kg/day (Colon-38 carcinoma; Mus musculus, 672 h, 366 mg/kg/day × 3, read-out: colon-38 Inhibition ratio): 32.2%
CCCC[Si](C)(C)CCCSCCCNC(=O)n1cc(F)c(=O)[nH]c1=O [Example 15, N-[3-[[3-(Butyldimethylsilyl)propyl]thio]propyl]-5-fluoro-3,4-dihydro-2,4-dioxo-1(2H)-pyrimidinecarboxamide] | 69.5 | 88.5 | 26 | 25 to 50 | 62 | 50 to 100 |  | colon-38 Inhibition ratio (Colon-38 carcinoma; 323 mg/kg/day × 3): 92.3%
CCCC[Si](C)(C)CCSCCCNC(=O)n1cc(F)c(=O)[nH]c1=O [Example 17, N-[3-[[2-(Butyldimethylsilyl)ethyl]thio]propyl]-5-fluoro-3,4-dihydro-2,4-dioxo-1(2H)-pyrimidinecarboxamide] |  |  |  |  |  |  |  | inhibition in vivo at 100 mg/kg/day (B-16 melanoma; [2]): 54.3%; inhibition in vivo at 200 mg/kg/day (B-16 melanoma; [2]): 16.3%; inhibition in vivo at 400 mg/kg/day (B-16 melanoma; [2]): 34.8%; inhibition in vivo at 312 mg/kg/day (Colon-38 carcinoma; Mus musculus, 672 h, 312 mg/kg/day × 3, read-out: colon-38 Inhibition ratio): 97.4%
CC(C)[Si](C)(C)CCCSCCCNC(=O)n1cc(F)c(=O)[nH]c1=O [Example 11, 5-Fluoro-3,4-dihydro-N-[3-[[3-(isopropyldimethylsilyl)propyl]thio]propyl]-2,4-dioxo-1(2H)-pyrimidinecarboxamide] | 32.8 | 45.7 | 18 | < 25 | 81 | 50 to 100 | 13 (≈ 33.4 µM) | colon-38 Inhibition ratio (Colon-38 carcinoma; 350 mg/kg/day × 3): 90.3%
